Assay [1] concerns PC-12. The assay can be described thus: Cytoprotection against serum deprivation-induced cellular damage of rat PC12 cells assessed as increase in cell viability at 10 uM after 48 hrs by MTT assay (reference value: 66.6 +/- 9.2%). Type of assay: functional. For orientation: Tetrazolium assays rely on reduction of a dye to a coloured formazan, in cell work by metabolically active cells.

For assay [2], the system named is Human immunodeficiency virus 1. Briefly: Antiviral activity against Human immunodeficiency virus 1 assessed as inhibition of viral replication. Type of assay: functional, organism-based.
In the next assay the test system is WB-F344. The assay can be described thus: (§1) Hepatoprotective activity in rat WB-F344 cells assessed as inhibition of D-galactosamine-induced cell damage at 10 uM treated 1 hr before D-galactosamine challenge after 24 hrs by MTT assay. It is filed as functional.
For assay [3], the system named is PC-12. The assay can be described thus: Cytoprotection against rotenone-induced toxicity in rat PC12 cells assessed as increase in cell viability at 10 uM after 48 hrs by MTT assay (reference value: 73.0 +/- 9.6%). Type of assay: functional.
For assay [4], the system named is Human immunodeficiency virus 1. The assay can be described thus: Antiviral activity against Human immunodeficiency virus 1 assessed as inhibition of viral replication at 0.001 uM. Type of assay: functional.
The nature of assay [5]: as §1. Type of assay: functional.

Calls of active or inactive are those of the source. No cut-off for these calls is given here.

For 22 compounds, Activity, IC50 and inhibition results are on record in ChEMBL document CHEMBL1811877, “Bioactive neolignans and lignans from the bark of Machilus robusta” (J Nat Prod, 2011).

By IC50 is commonly meant the concentration needed to halve the response being measured. Broadly, the inhibition is how much of the control response was suppressed.

As to `COc1cc(C[C@H](C)[C@H](C)Cc2cc(OC)c(O[C@@H](C)[C@@H](O)c3ccc(O)c(OC)c3)c(OC)c2)ccc1O`, the result with PC-12 [1] and in the assay with PC-12 [3] was inactive. Further, the half-maximal inhibitory concentration (IC50) in assay [2] is 2.01 µM. In addition, the inhibition entry (in the assay on WB-F344; in assay [4]) was “inactive” in each case.
With `COc1cc([C@H](O)[C@@H](C)Oc2ccc([C@H]3c4cc(O)c(OC)cc4C[C@@H](C)[C@@H]3C)cc2OC)ccc1O`, the result in the assay with PC-12 [1] and in the assay on PC-12 [3] was inactive. Also, the inhibition result (in assay [2]; in the assay on WB-F344; in assay [4]) was “inactive” throughout.
Consider `COc1cc2c(cc1O)[C@H](c1cc(O)c(O)c(OC)c1)[C@@H](C)[C@@H](C)C2`, for which the result in the assay on PC-12 [1] and in the assay with PC-12 [3] was inactive. Further, the inhibition result in assay [2] and in assay [4] was “inactive” each time. For the same compound, the inhibition at 10 µM in assay [5] came to 77.2%.
For `COc1cc2c(cc1O)[C@H](c1cc(OC)c(O)c(OC)c1)[C@@H](C)[C@@H](COC(C)=O)C2`, the outcome with PC-12 [1] and with PC-12 [3] was inactive. Also, the inhibition result (in assay [2]; in the assay with WB-F344; in assay [4]) was “inactive” in each case.
On to `COc1cc(C[C@H](C)[C@H](C)Cc2cc(O)c(O)c(OC)c2)ccc1O`, for which, in the assay on PC-12 [1], the result was inactive. Further, the inhibition entry in assay [2] and in assay [4] was “inactive” throughout. Further, the inhibition at 10 µM in assay [5] was 68%. For the same compound, in the assay with PC-12 [3], the Activity turned out to be 96.2%.
For the compound `COc1cc([C@H]2O[C@@H](c3cc(OC)c(O)c(OC)c3)[C@H](C)[C@@H]2C)ccc1O`, the outcome in the assay with PC-12 [1] and in the assay on PC-12 [3] was inactive. Also, the inhibition result (in assay [2]; in the assay on WB-F344; in assay [4]) was “inactive” each time.
`COc1cc(C[C@H](C)[C@H](C)Cc2cc(OC)c(OC)c(OC)c2)ccc1O`: the result in the assay on PC-12 [1] and in the assay with PC-12 [3] was inactive. In addition, the inhibition entry (in assay [2]; with WB-F344; in assay [4]) was “inactive” throughout.
As for `COc1cc(C[C@H](COC(C)=O)[C@H](C)Cc2cc(OC)c(O)c(OC)c2)ccc1O`, the outcome with PC-12 [1] and with PC-12 [3] was inactive. Besides, the inhibition result (in assay [2]; with WB-F344; in assay [4]) was “inactive” throughout.
As to `COc1cc([C@H]2c3c(cc(OC)c(O)c3OC)C[C@@H](CO)[C@@H]2CO)cc(OC)c1O`, in the assay on PC-12 [1], the Activity was 79.4%.
On to `COc1cc2c(cc1O)[C@H](c1cc(OC)c(O)c(OC)c1)[C@@H](C)[C@@H](C)C2`, for which the result with PC-12 [1] and with PC-12 [3] was inactive. Also, the inhibition result in assay [2] and in assay [4] was “inactive” each time. Also, the inhibition at 10 µM in assay [5] worked out at 64%.
For `COc1cc([C@@H]2OC[C@H](Cc3cc(OC)c(O)c(OC)c3)[C@H]2C)ccc1O`, the outcome with PC-12 [1] and in the assay with PC-12 [3] was inactive. Also, the inhibition entry (in assay [2]; in the assay with WB-F344; in assay [4]) was “inactive” in each case.
As for `COc1cc(C[C@H](C)[C@H](C)Cc2cc(OC)c(O)c(OC)c2)ccc1O`, the outcome in the assay on PC-12 [1] and in the assay with PC-12 [3] was inactive. The inhibition entry (in assay [2]; with WB-F344; in assay [4]) was “inactive” throughout.
Regarding `COC(=O)c1cc(OC)c2c(c1-c1c(CO)cc(OC)c3c1OCO3)OCO2` [BICYCLOL], the inhibition at 10 µM in assay [5] turned out to be 67%.
Turning to `COc1cc(C[C@H](C)[C@H](C)Cc2cc(OC)c(O[C@H](C)[C@@H](O)c3ccc(O)c(OC)c3)c(OC)c2)ccc1O`, the result with PC-12 [1] and in the assay on PC-12 [3] was inactive. For the same compound, in assay [2], the IC50 worked out at 2.52 µM. In addition, the inhibition entry (in the assay on WB-F344; in assay [4]) was “inactive” each time.
On to `O=C1Nc2ccc(Cl)cc2[C@@](C#CC2CC2)(C(F)(F)F)O1` [EFAVIRENZ], for which, in assay [4], the inhibition at 0.001 µM worked out at 42.5%.
Turning to `COc1cc2c(cc1O)C(=O)[C@H](C)[C@@H](C)C2`, the result in the assay with PC-12 [1] and in the assay on PC-12 [3] was inactive. Besides, the inhibition entry (in assay [2]; in the assay with WB-F344; in assay [4]) was “inactive” in each case.
As to `COc1cc([C@@H]2OC[C@H]3[C@@H]2CO[C@H]3c2ccc(O)c(OC)c2)ccc1O` [(-)-PINORESINOL], the Activity in the assay on PC-12 [1] is 73.2%.
As for `COc1cc2c(cc1O)[C@H](c1ccc(O)c(O)c1)[C@@H](C)[C@@H](C)C2`, the outcome in the assay with PC-12 [1] and in the assay on PC-12 [3] was inactive. Besides, the inhibition result (in assay [2]; in the assay on WB-F344; in assay [4]) was “inactive” each time.
Consider `COc1cc(C[C@H](C)[C@H](COC(C)=O)Cc2cc(OC)c(O)c(OC)c2)ccc1O`, for which the result in the assay with PC-12 [1] and in the assay with PC-12 [3] was inactive. Moreover, the inhibition result (in assay [2]; in the assay with WB-F344; in assay [4]) was “inactive” each time.
For the compound `COc1cc(C[C@H](C)[C@H](C)Cc2ccc(O)cc2)ccc1O`, the outcome in the assay with PC-12 [1] and with PC-12 [3] was inactive. Further, the inhibition entry (in assay [2]; with WB-F344; in assay [4]) was “inactive” each time.
As for `COc1cc2c(cc1O)[C@H](c1cc(OC)c(OC)c(OC)c1)[C@@H](C)[C@@H](C)C2`, the result with PC-12 [1] and in the assay with PC-12 [3] was inactive. Also, the inhibition result (in assay [2]; in the assay on WB-F344; in assay [4]) was “inactive” in each case.
With `COc1cc2c(cc1O)C(=O)[C@H](C)[C@H](C)C2`, the result in the assay on PC-12 [1] and in the assay on PC-12 [3] was inactive. In addition, the inhibition result (in assay [2]; in the assay with WB-F344; in assay [4]) was “inactive” in each case.
